# Test results taken from article PMC5954004, “19th European Symposium on Radiopharmacy and Radiopharmaceuticals (ESRR’18)” (EJNMMI Radiopharmacy and Chemistry, 2018).
# Where two headings read alike, the source gives them in different places.
# Experiments:
# [1] = 68Ga-labelled conjugates
# Protocol: (§3) Tz functionalization was performed by reaction with NHS-PEG5-Tz with FSC (resulting in the trimer FSC-(PEG5-Tz)3), MAFC (resulting in the dimer MAFC-(PEG5-Tz)2) and DAFC (resulting in the monomer DAFC-(PEG5-Tz), starting from its ferric complex with final iron removal by EDTA, HPLC purification and characterization by MS. ^68Ga-labelling was performed in acetate buffer (pH 4.5) at high s.a., resulting complexes were characterized by HPLC, protein binding, log P and stability was assessed. Rituximab was functionalized with NHS-TCO according to published procedures (Rtx-TCO). Binding of Tz-conjugates to TCO was assessed on Rtx-TCO immobilized 96well plates as well as after binding of Rtx-TCO vs Rtx to Raji cells expressing CD20 followed by incubation with 68Ga-Tz-conjugate. Biodistribution was studied in normal balb-c mice.
# [2] = 68Ga-labelled conjugates; remark: listed apart in the source
# Protocol: as §3
# [3] = tested on: Raji cells expressing CD20; assay: binding of 68Ga-Tz-conjugate after binding of Rtx-TCO to Raji cells; format: cell-based
# [4] = 1h p.i., normal balb-c mice
# Protocol: as §3
# [5] = 37°C, 24h incubation
# Protocol: Methods: 177Lu-DOTATATE (Lutathera®) was diluted to 1/5th in saline, 5% Glucose, Bicarbonate 8.4% solution, Ringer-Lactate, octreotide solution, octreotide LAR or incubated at 37°C in plasma or plasma enriched with 10% de octreotide. Radiochemical purity (RPC) was determined by ITLC-SG in 0.1mol/L sodium citrate pH=3. […] RPC was also determined using C18 Sep-Pack-Plus cartridge (Waters, USA). The free radionuclide was eluted with 5mL of 0.1mol/L acetate buffer pH=3 and the labelled peptide with 5mL of methanol, and hydroxylated Lu-177 remained inside the cartridge. Mixtures were then analyzed immediately, 30min and 24h after dilution. […] Binary comparisons to the undiluted product were made by a Mann-and-Whitney U test and stability over time checked by a 1-way ANOVA (p < 5%).
# mGluR1 = target: T1, mGluR1 (Mus musculus, UniProt P97772); assay: [11C]ITDM microPET in mouse brain; format: in vivo
# T1 construct: PET probe for imaging the kinetics of mGluR1 in mouse brain; from tissue; host or cells: brain of living WT Q175DN mice
# T1 sequence (P97772 21-1199): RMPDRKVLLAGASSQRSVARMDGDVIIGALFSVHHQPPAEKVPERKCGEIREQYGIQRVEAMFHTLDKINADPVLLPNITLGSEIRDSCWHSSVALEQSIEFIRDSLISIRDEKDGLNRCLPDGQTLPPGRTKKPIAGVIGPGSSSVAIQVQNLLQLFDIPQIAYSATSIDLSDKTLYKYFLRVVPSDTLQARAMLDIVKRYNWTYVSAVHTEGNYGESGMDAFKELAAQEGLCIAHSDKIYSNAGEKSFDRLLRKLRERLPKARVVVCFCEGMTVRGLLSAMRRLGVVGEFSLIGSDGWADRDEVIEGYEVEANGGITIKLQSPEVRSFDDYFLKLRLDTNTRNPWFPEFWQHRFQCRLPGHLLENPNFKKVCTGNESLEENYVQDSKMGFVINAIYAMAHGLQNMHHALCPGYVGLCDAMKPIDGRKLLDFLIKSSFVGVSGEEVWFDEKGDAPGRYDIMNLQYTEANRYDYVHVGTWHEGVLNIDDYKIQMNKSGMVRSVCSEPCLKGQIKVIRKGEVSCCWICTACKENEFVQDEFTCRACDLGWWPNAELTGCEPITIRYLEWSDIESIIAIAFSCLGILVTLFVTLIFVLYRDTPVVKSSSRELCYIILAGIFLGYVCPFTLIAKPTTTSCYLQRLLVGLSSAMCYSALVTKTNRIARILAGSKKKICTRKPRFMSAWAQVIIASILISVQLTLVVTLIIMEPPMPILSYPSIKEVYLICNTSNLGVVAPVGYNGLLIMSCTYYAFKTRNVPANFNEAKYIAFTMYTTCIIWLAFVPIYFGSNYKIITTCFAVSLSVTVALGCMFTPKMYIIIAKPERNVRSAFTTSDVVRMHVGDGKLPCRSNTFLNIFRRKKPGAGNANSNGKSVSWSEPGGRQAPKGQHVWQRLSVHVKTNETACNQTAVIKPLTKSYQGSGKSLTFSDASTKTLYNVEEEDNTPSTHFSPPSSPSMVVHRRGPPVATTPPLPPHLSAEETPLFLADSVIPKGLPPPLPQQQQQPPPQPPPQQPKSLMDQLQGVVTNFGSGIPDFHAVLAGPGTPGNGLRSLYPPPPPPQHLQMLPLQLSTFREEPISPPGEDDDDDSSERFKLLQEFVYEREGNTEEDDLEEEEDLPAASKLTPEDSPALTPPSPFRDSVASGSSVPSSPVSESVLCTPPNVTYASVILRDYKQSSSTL
# Protocol: Methods: We validated [^11C]ITDM as a PET probe for imaging the kinetics of mGluR1 in mouse brain. [^11C]ITDM was prepared by modification of a previously described method^1 in a module (Comecer Netherlands) adapted for automated production. In a cooled solution containing the arylstannane precursor (1.9mg), K2CO3 (2.1mg), CuCl2 (1.5mg), Pd2(dba)3 (1.3mg) and P(o-tol)3 (1.7mg) in DMF purged with N2, [^11C]MeI was bubbled, followed by reaction at 65°C for 5min. The mixture was purified by reverse phase semi-preparative HPLC (tR=8.5min), using MeCN:H2O:Et3N (6:4:0.01, V/V/V) as mobile phase (2.7mL/min) followed by sterile formulation into ethanolic saline containing 0.5% ascorbic acid, using a C18 Sep-Pak cartridge. For in vivo evaluation, WT Q175DN mice (n = 9; 11 months old) were intravenously (i.v.) injected with [^11C]ITDM (5.69±2.4MBq; injected mass=0.87±0.33μg/kg) and dynamically scanned for 90min (Siemens Inveon μPET/CT). To validate target engagement, blocking and displacement studies with mGluR1 antagonist YM-202074 (20mg/kg; i.v.; 2min before and 30min after tracer injection, respectively) were performed. Total volume of distribution (VT) (from 2TCM) was calculated noninvasively using an image-derived input function (IDIF) in several brain regions.
# GABAB receptors = target: T2, GABAB receptors (Mus musculus, UniProt Q9WV18); format: in vivo, mice
# T2 construct: from tissue; host or cells: brain of CD-1 male mice (in vivo / ex vivo)
# T2 sequence (Q9WV18 20-960): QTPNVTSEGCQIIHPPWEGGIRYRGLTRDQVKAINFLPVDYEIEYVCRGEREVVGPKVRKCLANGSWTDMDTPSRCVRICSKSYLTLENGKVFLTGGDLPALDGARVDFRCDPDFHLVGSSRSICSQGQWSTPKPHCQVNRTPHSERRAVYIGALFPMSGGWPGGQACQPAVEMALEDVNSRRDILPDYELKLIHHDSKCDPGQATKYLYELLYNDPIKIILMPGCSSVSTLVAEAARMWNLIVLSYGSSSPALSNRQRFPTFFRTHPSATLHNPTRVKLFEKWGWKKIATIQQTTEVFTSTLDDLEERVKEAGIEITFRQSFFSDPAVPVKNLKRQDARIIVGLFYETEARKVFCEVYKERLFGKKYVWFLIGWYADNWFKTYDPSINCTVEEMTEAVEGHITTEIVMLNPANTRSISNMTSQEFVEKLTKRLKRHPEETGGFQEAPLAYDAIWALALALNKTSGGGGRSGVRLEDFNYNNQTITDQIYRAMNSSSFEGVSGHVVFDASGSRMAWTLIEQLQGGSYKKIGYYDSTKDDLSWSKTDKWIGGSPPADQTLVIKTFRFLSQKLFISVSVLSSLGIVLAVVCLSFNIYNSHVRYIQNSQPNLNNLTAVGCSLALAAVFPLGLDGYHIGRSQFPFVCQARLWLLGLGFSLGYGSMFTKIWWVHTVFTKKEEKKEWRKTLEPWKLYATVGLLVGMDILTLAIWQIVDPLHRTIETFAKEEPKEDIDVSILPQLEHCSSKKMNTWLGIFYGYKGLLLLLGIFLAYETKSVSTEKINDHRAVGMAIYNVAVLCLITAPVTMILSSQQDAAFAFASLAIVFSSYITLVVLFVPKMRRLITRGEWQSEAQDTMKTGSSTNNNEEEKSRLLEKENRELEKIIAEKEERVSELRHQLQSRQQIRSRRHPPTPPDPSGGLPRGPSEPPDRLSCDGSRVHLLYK
# T2 sequence (Q80T41 41-940 partner): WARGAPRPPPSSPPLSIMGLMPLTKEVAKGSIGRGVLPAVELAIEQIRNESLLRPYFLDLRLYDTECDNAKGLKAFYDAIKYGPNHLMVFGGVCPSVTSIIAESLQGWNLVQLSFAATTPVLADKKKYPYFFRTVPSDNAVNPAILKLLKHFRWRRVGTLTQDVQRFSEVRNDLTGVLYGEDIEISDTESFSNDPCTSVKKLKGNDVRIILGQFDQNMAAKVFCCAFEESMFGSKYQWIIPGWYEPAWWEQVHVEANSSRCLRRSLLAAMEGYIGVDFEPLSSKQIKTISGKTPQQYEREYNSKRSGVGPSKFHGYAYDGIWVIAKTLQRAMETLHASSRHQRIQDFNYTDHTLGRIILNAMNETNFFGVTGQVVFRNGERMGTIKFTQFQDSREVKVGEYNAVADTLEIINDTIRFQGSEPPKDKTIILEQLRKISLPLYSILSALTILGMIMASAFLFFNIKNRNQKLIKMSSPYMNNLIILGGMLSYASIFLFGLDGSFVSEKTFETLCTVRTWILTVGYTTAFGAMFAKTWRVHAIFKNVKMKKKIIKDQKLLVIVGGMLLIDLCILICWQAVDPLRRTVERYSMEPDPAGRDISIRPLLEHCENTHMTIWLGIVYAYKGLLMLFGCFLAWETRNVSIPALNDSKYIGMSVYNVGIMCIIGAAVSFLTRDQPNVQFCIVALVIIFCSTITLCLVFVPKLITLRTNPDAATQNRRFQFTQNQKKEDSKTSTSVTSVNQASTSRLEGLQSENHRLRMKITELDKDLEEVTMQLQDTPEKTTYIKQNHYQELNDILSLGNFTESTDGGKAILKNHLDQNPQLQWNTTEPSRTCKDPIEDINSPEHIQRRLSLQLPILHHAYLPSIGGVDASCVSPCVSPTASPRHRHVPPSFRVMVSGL
# Protocol: Methods: New GABAB agonists, fluoropyridylmethoxy analogues of baclofen, were synthesized. The in vitro potency of these new compounds was determined commercially. […] The regional brain distribution of the radiolabeled [^18F]1 was studied in CD-1 male mice.
# in vivo = conditions: BALB/c nude, mouse, total radioactivity
# Protocol: (§1) Methods: The new MG analogue DOTA-MGS5 was designed based on a combination of the substitutions applied in peptide derivatives previously developed by our group (1). The in vitro and in vivo characterisation after radiolabelling with In-111 and Lu-177 included stability analyses of the radioligands incubated in rat tissue homogenates and after injection into BALB/c mice. Receptor interaction in terms of receptor affinity and cell uptake was analysed using A431 human epidermoid carcinoma cells transfected with human CCK2R (A431-CCK2R) and mock-transfected cells (A431-mock). The targeting potential was evaluated by small animal dual modality single photon emission computed tomography (NanoSPECT/CT) as well as ex vivo biodistribution studies in tumour bearing BALB/c nude mice up to 4 h after injection.
# [6] = after 10 min, BALB/c mice in vivo
# Protocol: as §1
# A431-CCK2R cells = assay: internalisation into A431-CCK2R cells; format: cell-based, human
# [7] = plutonium decorporation in rats; format: in vivo; conditions: delayed administration, of the levels in untreated control rats
# Protocol: Methods: Unilamellar liposomes (DSPC/Cholesterol/DSPE 69:30:1) were used to encapsulate DTPA (25mM). For decorporation experiments, rats were first contaminated by intravenous administration of the soluble citrate form of ^238Pu (4 to 10.3 kBq), before injection of DTPA, marketed free form or encapsulated in liposomes (2.25 at 6.74 μmol/kg). Treatment schedules started at one hour (prompt treatment) or at seven days (delayed treatment) after contamination and were given as a single injection or repeated injections. A prophylactic single treatment was also tested given at three days before contamination. Organs of interest (liver, bone and spleen mainly) and excreta were collected at different times for measurement of Pu alpha activity.
# [8] = target: gastrin-releasing peptide receptor (GRPr) (human (endogenous in PC-3, T47D, MDA-MB-231)) (UniProt P30550)
# gastrin-releasing peptide receptor (GRPr) (human (endogenous in PC-3, T47D, MDA-MB-231)), sequence (P30550 whole entry, stated change not applied): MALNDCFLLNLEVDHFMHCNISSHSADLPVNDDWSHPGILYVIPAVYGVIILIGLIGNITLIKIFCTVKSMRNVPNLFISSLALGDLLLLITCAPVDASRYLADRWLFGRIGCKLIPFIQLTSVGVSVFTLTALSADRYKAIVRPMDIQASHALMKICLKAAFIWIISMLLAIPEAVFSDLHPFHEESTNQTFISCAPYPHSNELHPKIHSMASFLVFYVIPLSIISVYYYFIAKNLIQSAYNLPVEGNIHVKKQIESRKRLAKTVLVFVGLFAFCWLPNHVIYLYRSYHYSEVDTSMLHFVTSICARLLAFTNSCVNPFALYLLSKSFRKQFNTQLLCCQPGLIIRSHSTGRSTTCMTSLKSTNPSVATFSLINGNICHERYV
# AsPC-1 cells = assay: clonogenic survival assay, AsPC-1; format: cell-based
# Protocol: (§2) Methods: Flow cytometry: EGFR density was measured on AsPC-1, PANC-1, MiaPACA-2, and Capan-1 cell lines. Cells were incubated with panitumumab for 60 min, then with Alexa Fluor 647 anti-human IgG immunoconjugates for 30 min at 4°C, then run on a flow cytometer. Clonogenic survival assays: Cells were treated with γ-radiation (0-8Gy) or ^177Lu-RIT (0-3MBq/72nM) then seeded in into 6-well plates and allowed to grow at 37°C, 5% CO2, for 14 days. Then colonies were fixed/stained and counted. Subcellular fractionation: Cells were treated with ^177Lu-RIT (1MBq/72nM) for 1, 3, 4, and 24 hours. Radioactivity associated with cell surface, cytoplasm, and nucleus was separated then measured in a γ-counter.
# Capan-1 cells = assay: clonogenic survival assay, Capan-1; format: cell-based
# Protocol: as §2
# MIAPaca-2 cells = assay: clonogenic survival assay, MIAPaca-2; format: cell-based
# Protocol: as §2
# PANC-1 cells = assay: clonogenic survival assay, PANC-1; format: cell-based
# Protocol: as §2
# [9] = plasma enriched with octreotide
# [10] = 2TCM, image-derived input function, WT Q175DN mice n = 9
compound,measurement,setting,value
"CC(=O)NC1CCCN(O)C(=O)/C=C(/C)CCOC(=O)C(NC(=O)CCOCCOCCOCCOCCOCCC(=O)NCc2ccc(-c3nncnn3)cc2)CCCN(O)C(=O)/C=C(/C)CCOC(=O)C(NC(C)=O)CCCN(O)C(=O)/C=C(/C)CCOC1=O (stereo not drawn) (68Ga complex, metal not drawn) [DAFC-(PEG5Tz)]",log p,[1],below -1
same,protein binding,[2],exceeded 50%
same,binding after binding of Rtx-TCO to CD20 expressing cells,[3],4.01 ± 0.24%
same,blood levels,[4],1 %ID/g
"C/C1=C/C(=O)N(O)CCCC(NC(=O)CCOCCOCCOCCOCCOCCC(=O)NCc2ccc(-c3nncnn3)cc2)C(=O)OCC/C(C)=C\C(=O)N(O)CCCC(NC(=O)CCOCCOCCOCCOCCOCCC(=O)NCc2ccc(-c3nncnn3)cc2)C(=O)OCC/C(C)=C\C(=O)N(O)CCCC(NC(=O)CCOCCOCCOCCOCCOCCC(=O)NCc2ccc(-c3nncnn3)cc2)C(=O)OCC1 (stereo not drawn) (68Ga complex, metal not drawn) [FSC-(PEG5Tz)3]",log p,[1],below -1
same,protein binding,[2],exceeded 50%
same,binding after binding of Rtx-TCO to CD20 expressing cells,[3],15.9 ± 0.88%
same,blood levels,[4],3 %ID/g
"CC(=O)NC1CCCN(O)C(=O)/C=C(/C)CCOC(=O)C(NC(=O)CCOCCOCCOCCOCCOCCC(=O)NCc2ccc(-c3nncnn3)cc2)CCCN(O)C(=O)/C=C(/C)CCOC(=O)C(NC(=O)CCOCCOCCOCCOCCOCCC(=O)NCc2ccc(-c3nncnn3)cc2)CCCN(O)C(=O)/C=C(/C)CCOC1=O (stereo not drawn) (68Ga complex, metal not drawn) [MAFC-(PEG5Tz)2]",log p,[1],below -1
same,protein binding,[2],exceeded 50%
same,binding after binding of Rtx-TCO to CD20 expressing cells,[3],7.75 ± 0.56%
"C[C@@H](O)[C@H](NC(=O)[C@@H]1CSSC[C@H](NC(=O)[C@@H](Cc2ccccc2)NC(=O)CN2CCN(CC(=O)O)CCN(CC(=O)O)CCN(CC(=O)O)CC2)C(=O)N[C@@H](Cc2ccc(O)cc2)C(=O)N[C@H](Cc2c[nH]c3ccccc23)C(=O)N[C@@H](CCCCN)C(=O)N[C@@H]([C@@H](C)O)C(=O)N1)C(=O)O [177Lu-DOTATATE, metal not drawn]",hydroxylated Lutetium,[5]; [9],6.3%±1.8%
same,unbound lutetium,[5]; [9],4.8%±0.8%
same,hydroxylated Lutetium,"[5]; plasma, mean±SD n = 3-4",4.9%±1.3%
same,unbound lutetium,"[5]; plasma, mean±SD n = 3-4",4.2%±0.6%
COCCN(C)Cc1ccc2c(c1)nc1sc(C(=O)N(C)C3CCCCC3)cn12 [YM-202074],blockade and displacement of [11C]ITDM,"mGluR1; 20mg/kg i.v., 2min before and 30min after tracer injection, all investigated brain regions",significant blockade and displacement
CC(C)Nc1cc(-c2csc(N(C)C(=O)c3ccc([11CH3])cc3)n2)ncn1 [[^11C]ITDM],VT cerebellum,mGluR1; [10],9.1±2.1 mL/cm^3
same,VT thalamus,mGluR1; [10],8.2±2.1 mL/cm^3
"NC[C@H](CC(=O)O)c1ccc(Cl)c(OCc2ccnc(F)c2)c1 [[^18F]1, (R)-4-amino-3-(4-chloro-3-((2-fluoropyridin-4-yl)methoxy)phenyl) butanoic acid]",mouse brain uptake,GABAB receptors; CD-1 male mice,1 % ID/g tissue
same,inhibition of accumulation in the mouse brain,GABAB receptors; pre-injection of a selective GABAB agonist,35%
"CCCC[C@@H](C(=O)N[C@@H](CC(=O)O)C(=O)N[C@@H](Cc1cccc2ccccc12)C(N)=O)N(C)C(=O)[C@H](Cc1c[nH]c2ccccc12)NC(=O)CNC(=O)[C@H](Cc1ccc(O)cc1)NC(=O)[C@H](C)NC(=O)[C@@H](CCC(=O)O)NC(=O)CN1CCN(CC(=O)O)CCN(CC(=O)O)CCN(CC(=O)O)CC1 [^111In-DOTA-MGS5, metal not drawn]",tissue uptake at 4 h,"in vivo; A431-CCK2R tumour, tumour uptake, 4 h p.i.",23.5 ± 1.3 %ID/g
same,"stability in blood, intact peptide",[6],> 80%
same,internalisation into A431-CCK2R cells,A431-CCK2R cells; after 1 h,> 40%
same,internalisation into A431-CCK2R cells,A431-CCK2R cells; after 4 h,> 80%
"CCCC[C@@H](C(=O)N[C@@H](CC(=O)O)C(=O)N[C@@H](Cc1cccc2ccccc12)C(N)=O)N(C)C(=O)[C@H](Cc1c[nH]c2ccccc12)NC(=O)CNC(=O)[C@H](Cc1ccc(O)cc1)NC(=O)[C@H](C)NC(=O)[C@@H](CCC(=O)O)NC(=O)CN1CCN(CC(=O)O)CCN(CC(=O)O)CCN(CC(=O)O)CC1 [^177Lu-DOTA-MGS5, metal not drawn]",tissue to tissue ratio at 4 h,in vivo; A431-CCK2R tumour / kidneys,> 6
same,tissue to tissue ratio at 4 h,in vivo; A431-CCK2R tumour / stomach,> 3
same,"stability in blood, intact peptide",[6],> 80%
O=C(O)CN(CCN(CC(=O)O)CC(=O)O)CCN(CC(=O)O)CC(=O)O [free DTPA],decrease of hepatic Pu level,[7],19%
same,decrease of skeletal Pu level,[7],12%
same,decrease of splenic Pu level,[7],24%
"GRPr antagonist H2N-4-amino-1-carboxymethyl piperidine-[(R)-Phe^6, Sta^13]BN(6-14) linked to the chelator HBED-CC, labelled with 68Ga (peptide)","cell bound, % given radioactivity (MDA-MB-231+ cells, 1 h) (% given radioactivity)",[8],3
same,"cell bound, % given radioactivity (PC-3+ cells, 1 h) (% given radioactivity)",[8],30
same,"cell bound, % given radioactivity (T47D+ cells, 1 h) (% given radioactivity)",[8],9
^177Lu-RIT: panitumumab modified with a NOTA chelator and radiolabeled with 177Lu,D10 (clonogenic survival reduced to 10%),AsPC-1 cells; AsPc-1,3.1 MBq
same,RBE,"AsPC-1 cells; AsPc-1, compared to γ-radiation",0.2
same,D10 after 177Lu-RIT,"AsPC-1 cells; AsPc-1, microdosimetry",16.9 Gy
same,D10 (clonogenic survival reduced to 10%),Capan-1 cells; Capan-1,1 MBq
same,RBE,"Capan-1 cells; Capan-1, compared to γ-radiation",0.3
same,D10 after 177Lu-RIT,"Capan-1 cells; Capan-1, microdosimetry",8.2 Gy
same,D10 (clonogenic survival reduced to 10%),MIAPaca-2 cells; MIAPaca-2,6.0 MBq
same,RBE,"MIAPaca-2 cells; MIAPaca-2, compared to γ-radiation",0.2
same,D10 after 177Lu-RIT,"MIAPaca-2 cells; MIAPaca-2, microdosimetry",23.3 Gy
same,D10 (clonogenic survival reduced to 10%),PANC-1 cells; PANC-1,1.1 MBq
same,RBE,"PANC-1 cells; PANC-1, compared to γ-radiation",1.0
same,D10 after 177Lu-RIT,"PANC-1 cells; PANC-1, microdosimetry",5.7 Gy
